Residues, ends and D or L forms follow the SMILES beside them.
Assays:
[1] = biological target: T1, Aminopeptidase B (Rattus norvegicus, UniProt O09175); test: Inhibitory potency against purified membrane bound rat brain Aminopeptidase B using L-lysine-beta napthylamide as substrate; type: functional
T1 sequence (O09175 whole entry): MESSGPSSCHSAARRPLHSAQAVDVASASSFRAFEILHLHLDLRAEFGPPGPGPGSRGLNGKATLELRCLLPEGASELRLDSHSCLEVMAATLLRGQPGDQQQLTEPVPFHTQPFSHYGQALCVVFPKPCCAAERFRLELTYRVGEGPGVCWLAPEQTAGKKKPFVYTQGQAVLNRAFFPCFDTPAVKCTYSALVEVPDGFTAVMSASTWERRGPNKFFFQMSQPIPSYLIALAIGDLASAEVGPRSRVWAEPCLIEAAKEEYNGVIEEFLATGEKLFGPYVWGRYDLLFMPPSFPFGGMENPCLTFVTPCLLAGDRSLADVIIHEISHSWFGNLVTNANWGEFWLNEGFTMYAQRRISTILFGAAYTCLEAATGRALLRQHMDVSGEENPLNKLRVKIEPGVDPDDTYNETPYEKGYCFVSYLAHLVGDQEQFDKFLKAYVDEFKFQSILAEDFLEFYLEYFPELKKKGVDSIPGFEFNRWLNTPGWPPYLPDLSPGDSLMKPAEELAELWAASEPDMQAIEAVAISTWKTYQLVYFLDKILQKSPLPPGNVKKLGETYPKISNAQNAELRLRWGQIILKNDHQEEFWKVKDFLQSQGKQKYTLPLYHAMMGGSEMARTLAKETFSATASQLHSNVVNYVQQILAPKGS

[2] = biological target: T2, Aminopeptidase N (Rattus norvegicus, UniProt P15684); test: Inhibitory potency against purified membrane bound rat brain Aminopeptidase M using [3H]Leu-enkephalin as substrate; type: functional
T2 sequence (P15684 whole entry): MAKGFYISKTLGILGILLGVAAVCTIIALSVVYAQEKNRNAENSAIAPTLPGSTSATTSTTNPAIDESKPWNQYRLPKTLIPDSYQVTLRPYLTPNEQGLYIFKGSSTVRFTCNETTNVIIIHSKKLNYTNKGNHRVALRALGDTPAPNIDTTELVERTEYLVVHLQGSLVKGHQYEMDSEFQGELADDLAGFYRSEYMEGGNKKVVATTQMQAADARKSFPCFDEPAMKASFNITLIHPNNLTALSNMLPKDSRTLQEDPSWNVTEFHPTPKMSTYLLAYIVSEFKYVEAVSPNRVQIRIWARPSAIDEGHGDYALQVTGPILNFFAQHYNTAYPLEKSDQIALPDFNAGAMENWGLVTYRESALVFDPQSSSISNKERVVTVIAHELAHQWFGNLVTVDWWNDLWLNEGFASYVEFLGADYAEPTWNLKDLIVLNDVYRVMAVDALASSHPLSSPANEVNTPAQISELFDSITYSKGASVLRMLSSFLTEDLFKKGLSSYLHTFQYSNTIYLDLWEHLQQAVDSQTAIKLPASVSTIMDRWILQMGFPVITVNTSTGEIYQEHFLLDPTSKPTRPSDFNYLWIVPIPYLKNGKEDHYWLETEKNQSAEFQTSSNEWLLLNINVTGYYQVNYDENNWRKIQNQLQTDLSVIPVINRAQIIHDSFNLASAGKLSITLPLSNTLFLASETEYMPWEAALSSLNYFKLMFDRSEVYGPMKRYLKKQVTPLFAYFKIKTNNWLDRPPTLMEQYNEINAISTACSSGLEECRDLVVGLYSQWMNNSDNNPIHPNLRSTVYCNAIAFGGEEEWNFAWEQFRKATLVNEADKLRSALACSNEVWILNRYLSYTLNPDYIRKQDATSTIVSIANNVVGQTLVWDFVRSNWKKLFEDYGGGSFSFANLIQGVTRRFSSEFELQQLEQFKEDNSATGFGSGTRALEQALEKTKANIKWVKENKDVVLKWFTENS

[3] = organism: Mus musculus; test: Analgesic response measured as percentage change in reaction time (dose 5 ug given intracervically) after 30 min in mice; type: functional
[4] = organism: Mus musculus; test: Analgesic response measured as percentage change in reaction time (dose 5 ug given intracervically) after 5 min in mice; type: functional
[5] = organism: Mus musculus; test: Analgesic response measured as percentage change in reaction time (dose 5 ug given intracervically) after 60 min in mice; type: functional
[6] = biological target: T1, Aminopeptidase B; test: Compound was evaluated for its inhibitory potency against purified membrane bound rat brain Aminopeptidase B (AP-B) using L-lysine-beta napthylamide as substrate
[7] = biological target: T2, Aminopeptidase N; test: Compound was evaluated for its inhibitory potency against purified membrane bound rat brain Aminopeptidase M (AP-M) using [3H]Leu-enkephalin as substrate
[8] = biological target: T2, Aminopeptidase N; test: (§1) Compound was evaluated for its inhibitory potency against purified membrane bound rat brain Aminopeptidase M using [3H]Leu-enkephalin as substrate; type: functional
[9] = biological target: T1, Aminopeptidase B; test: (§2) Compound was evaluated for its inhibitory potency against purified membrane bound rat brain Aminopeptidase B using L-lysine-beta napthylamide as substrate; type: functional
[10] = organism: Mus musculus; test: Analgesic response measured as percentage change in reaction time (dose given intracervically) after 60 min in mice; type: functional
[11] = (§3) Compound was evaluated for its inhibitory potency against purified membrane bound rat brain APs; type: functional
[12] = organism: Mus musculus; test: Analgesic response measured as percentage change in reaction time (dose 1 ug given intracervically) after 30 min in mice; type: functional
[13] = organism: Mus musculus; test: Analgesic response measured as percentage change in reaction time (dose 1 ug given intracervically) after 5 min in mice; type: functional
[14] = organism: Mus musculus; test: Analgesic response measured as percentage change in reaction time (dose 1 ug given intracervically) after 60 min in mice; type: functional
[15] = organism: Mus musculus; test: Analgesic response measured as percentage change in reaction time (dose 0.5 ug given intracervically) after 30 min in mice; type: functional
[16] = organism: Mus musculus; test: Analgesic response measured as percentage change in reaction time (dose 0.5 ug given intracervically) after 5 min in mice; type: functional
[17] = organism: Mus musculus; test: Analgesic response measured as percentage change in reaction time (dose 0.5 ug given intracervically) after 60 min in mice; type: functional
[18] = as §3; type: tissue-based
[19] = biological target: T1, Aminopeptidase B; test: as §2
[20] = biological target: T2, Aminopeptidase N; test: as §1
[21] = organism: Mus musculus; test: Analgesic response measured as percentage change in reaction time (dose 25 ug given intracervically) after 30 min in mice; type: functional
[22] = organism: Mus musculus; test: Analgesic response measured as percentage change in reaction time (dose 25 ug given intracervically) after 5 min in mice; type: functional
[23] = organism: Mus musculus; test: Analgesic response measured as percentage change in reaction time (dose 25 ug given intracervically) after 60 min in mice; type: functional
[24] = organism: Mus musculus; test: Analgesic response measured as percentage change in reaction time (dose 100 ug given intracervically) after 30 min in mice; type: functional
[25] = organism: Mus musculus; test: Analgesic response measured as percentage change in reaction time (dose 100 ug given intracervically) after 5 min in mice; type: functional
[26] = organism: Mus musculus; test: Analgesic response measured as percentage change in reaction time (dose 100 ug given intracervically) after 60 min in mice; type: functional
[27] = organism: Mus musculus; test: Analgesic response measured as percentage change in reaction time ((dose 1 ug given intracervically) after 60 min in mice; type: functional
[28] = organism: Mus musculus; test: Analgesic response measured as percentage change in reaction time (dose 10 ug given intracervically) after 30 min in mice; Signs of strong neurotoxicity; type: functional, organism-based
[29] = organism: Mus musculus; test: Analgesic response measured as percentage change in reaction time (dose 10 ug given intracervically) after 60 min in mice; Signs of strong neurotoxicity; type: functional, organism-based
[30] = organism: Mus musculus; test: Analgesic response measured as percentage change in reaction time (dose 10 ug given intracervically) after 5 min in mice; type: functional
[31] = biological target: T1, Aminopeptidase B; test: Inhibitory potency against purified membrane bound rat brain Aminopeptidase B (AP-B) using L-lysine-beta napthylamide as substrate
[32] = biological target: T2, Aminopeptidase N; test: Inhibitory potency against purified membrane bound rat brain Aminopeptidase M (AP-M) using [3H]Leu-enkephalin as substrate

SMILES | Change [3] [%] | Change [4] [%] | Change [5] [%] | IC50 [6] [µM] | IC50 [7] [µM] | IC50 [8] [µM] | IC50 [9] [µM] | Change [12] [%] | Change [13] [%] | further results
COC(=O)[C@@H](Cc1c[nH]c2ccccc12)NC(=O)[C@@H](O)[C@H](N)CCCCN.COC(=O)[C@@H](Cc1c[nH]c2ccccc12)NC(=O)[C@H](O)[C@H](N)CCCCN | 1 | 10 | 5 | – | – | – | – | – | – | IC50 [1]: > 1000 µM; IC50 [2]: 826 µM
COC(=O)[C@H](CC(C)C)NC(=O)[C@@H](O)[C@@H](N)CCCCN.COC(=O)[C@H](CC(C)C)NC(=O)[C@H](O)[C@@H](N)CCCCN | 10 | -1 | 15 | 500 | > 1000 | – | – | – | – | –
NCCCC[C@H](N)C(=O)N[C@@H](Cc1c[nH]c2ccccc12)C(=O)O (H-Lys-Trp-OH) | – | – | – | > 1000 | > 1000 | – | – | – | – | –
COC(=O)[C@@H](Cc1c[nH]c2ccccc12)NC(=O)[C@@H](O)[C@@H](N)CCCCN | 10 | -1 | 15 | – | – | > 1000 | > 1000 | – | – | –
COC(=O)[C@@H](Cc1c[nH]c2ccccc12)NC(=O)[C@H](O)[C@@H](N)CCCCN | -1 | 22 | 2 | – | – | > 1000 | > 1000 | – | – | –
COC(=O)[C@H](Cc1c[nH]c2ccccc12)NC(=O)[C@@H](O)[C@H](N)CCCCN.Cl.Cl | 17 | <60 | – | – | – | 10.2 | > 1000 | – | – | Change [10]: 14%; IC50 [11]: 0.21 µM
COC(=O)[C@H](Cc1c[nH]c2ccccc12)NC(=O)[C@@H](O)[C@@H](N)CCCCN.COC(=O)[C@H](Cc1c[nH]c2ccccc12)NC(=O)[C@H](O)[C@@H](N)CCCCN | 19 | 26 | -4 | – | – | > 1000 | 500 | – | – | –
COC(=O)[C@H](Cc1c(Sc2ccccc2[N+](=O)[O-])[nH]c2ccccc12)NC(=O)[C@@H](N)CCCCN | – | – | – | – | – | 261 | 400 | <60 | <130 | Change [14]: 35%; Change [15]: <40%; Change [16]: <80%; Change [17]: 20%; IC50 [11]: 18 µM
CC(C)C[C@H](NC(=O)[C@@H](O)[C@H](N)Cc1ccccc1)C(=O)O [UBENIMEX] | – | – | – | – | – | – | – | – | – | IC50 [18]: 0.3 µM; IC50 [19]: 6 µM; IC50 [20]: 19.4 µM; Change [21]: 3%; Change [22]: 26%; Change [23]: -3%; Change [24]: 41%; Change [25]: 11%; Change [26]: 59%
COC(=O)[C@@H](Cc1c(Sc2ccccc2[N+](=O)[O-])[nH]c2ccccc12)NC(=O)C(O)[C@H](N)CCCCN (some centres undefined) | 56 | 80 | 37 | 486 | 91.2 | – | – | 13 | 19 | Change [14]: -2%
COC(=O)[C@H](Cc1c(Sc2ccccc2[N+](=O)[O-])[nH]c2ccccc12)NC(=O)[C@@H](O)[C@H](N)CCCCN | 80 | 146 | 74 | 101 | 7 | – | – | 63 | 124 | Change [27]: 47%; Change [28]: Signs of strong neurotoxicity; Change [29]: Signs of strong neurotoxicity; Change [30]: 243%
COC(=O)[C@H](Cc1c[nH]c2ccccc12)NC(=O)[C@H](O)[C@H](N)CCCCN | – | – | – | – | – | 502 | > 1000 | – | – | IC50 [11]: 45.5 µM
COC(=O)[C@H](CC(C)C)NC(=O)[C@@H](O)[C@H](N)CCCCN | 21 | <62 | 23 | – | – | – | – | – | – | IC50 [19]: 481 µM; IC50 [20]: 201 µM
COC(=O)[C@@H](Cc1c(Sc2ccccc2[N+](=O)[O-])[nH]c2ccccc12)NC(=O)[C@H](O)[C@@H](N)CCCCN | 75 | 59 | 55 | 982 | 225 | – | – | 21 | 19 | Change [14]: -1%
COC(=O)[C@H](Cc1c(Sc2ccccc2[N+](=O)[O-])[nH]c2ccccc12)NC(=O)C(O)[C@@H](N)CCCCN (some centres undefined) | 64 | 75 | 43 | – | – | – | – | 15 | 25 | IC50 [31]: 583 µM; IC50 [32]: 852 µM; Change [14]: -8%
